From US6313170A, “L-threonate ferrous, as well as pharmaceutical composition and use for improving and treating human anemia thereof” (priority 1997, dated 2001)
Like-named read-outs stand apart in the source and are kept apart here.

What was measured:
[1] = water
Blood-loss Anemia Model = test: Blood-loss anemia model, rats; settings: for Blood hemochrome content / GPC (blood granulophilocyte) / RBC: n=10;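 on all read-outs here: male Wistar rats made anemic by repeated orbital bloodletting, kept on iron-low diet with deionized water while dosed, compared against untreated anemic model and normal-diet control groups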
Experimental: Ferrous gluconate, the positive control drug, yellow-green powder and 11% ferrous content, was purchased from Ganjian Pharmaceutical Company of Jianxi Province. Ferrous fumarate, 6.4% ferrous content, was purchased from the 18th Pharmaceutical Company of Shanghai. All drugs were diluted by distilled water.
7 groups were prepared as hemolytic anemia groups and one group was taken as normal control group supplemented with normal diet and water. The hemolytic anemia model was prepared by subjecting rats to inner canthus bloodletting of right eye through capillary glass tube. The first bloodletting content was 2.0 ml for each rat and in that time the range of hemochrome for rats was from 9.78 to 10.65 g %. Two days later, the second bloodletting (2 ml/rat) was carried out with the hemochrome values of 7.40-7.88 g %. The total bloodletting volume for each rat was 4 ml and was 32.9% in volume of the whole blood circulating the body.
While one hemolytic anemia group and one normal control group were taken as reference groups compared with other groups left. These two groups' rats were killed and the blood parameters were recorded. Other six groups now were randomly divided into three treatment groups of ferrous L-threonate with high, middle and low dosages respectively, two positive drugs control groups of ferrous gluconate and ferrous fumarate and one model group. At the end of 12 days and 18 days experimental periods, 5 and 10 rats of each group were killed correspondingly. During the course of experiment, the variations of hemochrome content were examined with 6 days interval.
While Element ferrous content 8.64 mg/kg as ferrous gluconate or ferrous fumarate was for positive drug control group. The groups for blood-loss anemia were provided iron-low diet and deionized water during the period of the administration of drugs, while the normal animal control group was provided normal diet and deionized water.

IDA for Children = settings: for FEP / RBC / SF / Hb: tablets 7.5 mg Fe + 30 mg vitamin C
Experimental: Subjects: Thirty school-age children aged from 8 to 13 years of Haerbin city of China.
Methods: Blood samples of 10 μl from ear and 5 ml from arm vein for each patient were collected for measurement.
(1) Measurement of RBC: 10 μl blood sample was added to 2 ml diluent and the mixture was shaken completely. One drop of this suspending solution taken by circle glass bar was poured into counting cell. RBC was countered through microscope by laying counting plate on the microstat.
(2) Measurement of HB: The ferric cyanide method was used to determine the HB. 10 μl ear blood sample was added to 5 ml acid diluent to obtain the completely mixed solution by shaking. HB was measured by SH hemoglobinometer manufactured by Huauang Instrument Company of Jianshu Province. Ferric cyanide was purchased from Medical Examination Institute of Shanghai.
(3) Measurement of FEP: To add 0.05 ml whole blood sample anticoagulated by heparin to 3.5 ml of acid anhydrous ethyl alcohol, the mixture was shaken for 5 min and then was centrifugalized with speed of 3000 r/min. The centrifugate of mixture was used for the measurement of fluorometric method (400 nm for exciting optical filter and 600 nm for emitting optical filter).
According to formula given below, the FEP can be calculated. [formula]
Where Fu and PCV represent fluorescence extent and hematocrit, respectively.
To centifugalized 2 ml whole blood sample, the upper solution was used for measurement of SF through the method of radio-immune competition-inhibition program.
Among these 62 IDA patients, 30 children were randomly selected as treatment group of ferrous L-threonate.
Another 30 children with IDA were selected from another prime school with the same diagnosing standards and were established as control group.
Observation time for treatment group and control group was 30 days period and during that period, there were no any intervention on children's activity and food.
(3) Dosages: Each child of treatment group was administered ferrous L-threonate tablets twice a day, one tablet each time. While normal control group was treated with placebo by the same method.

Hemolytic Anemia Model = test: Hemolytic anemia model (acetylphenylhydrazine), rats; type: in vivo, male Wistar rats
Experimental: 1. […] All drugs were diluted by distilled water.
2. […] Animal diet also was purchased from Beijing Medical University.
(1) Hemolytic Anemia Model: Hemolytic anemia model was prepared for rats by injecting reagent of acetylphenylhydrazine (C8 H10 N2 O, produced by Beijing Biochemical Company) subcutaneously. The drug acetyphenylhydrazine was mixed with physiological saline to get its injection solution of 4% by weight of acetyphenylhydrazine. The solution was injected subcutaneously into each rat with a dosage of 57 μg/g at the beginning of the experiments. The content of blood hemochrome for each rat was examined at 2 days and 4 days later, respectively. When the mean blood hemochrome decreased to about 6.11±0.25 g %, rats were randomly divided into 6 groups of 18 rats each. […] The forth groups was positive drug control groups. The fifth group and the sixth group were designed as model group and normal control group, respectively.

[2] = 8.64 mg Fe/kg (middle dosage / positive controls), 12 days
[3] = 8.64 mg Fe/kg (middle dosage / positive controls), 18 days
[4] = high dosage, 17.28 mg Fe/kg, 12 days
[5] = high dosage, 17.28 mg Fe/kg, 18 days
[6] = low dosage, 4.32 mg Fe/kg, 12 days
[7] = low dosage, 4.32 mg Fe/kg, 18 days
[8] = after treatment (30 days), twice a day
[9] = 8.64 mg Fe/kg (middle dosage / positive control)

Substance: ferrous L-threonate
- solubility [1]: soluble in water
- Blood hemochrome content (Blood-loss Anemia Model; 8.64 mg Fe/kg (middle dosage / positive controls), 6 days after treatment): 8.35 ± 0.21
- Blood hemochrome content (Blood-loss Anemia Model; 8.64 mg Fe/kg (middle dosage / positive controls), 12 days after treatment): 10.67 ± 0.37
- GPC (blood granulophilocyte) (Blood-loss Anemia Model; [2]): 12.58%
- RBC (Blood-loss Anemia Model; [2]): 4.81e+12 L⁻¹
- Blood hemochrome content (Blood-loss Anemia Model; 8.64 mg Fe/kg (middle dosage / positive controls), 18 days after treatment): 12.14 ± 0.27
- GPC (blood granulophilocyte) (Blood-loss Anemia Model; [3]): 8.44%
- RBC (Blood-loss Anemia Model; [3]): 5.21e+12 L⁻¹
- Blood hemochrome content (Blood-loss Anemia Model; 8.64 mg Fe/kg (middle dosage / positive controls), before treatment): 7.40 ± 0.54
- Blood hemochrome content (Blood-loss Anemia Model; high dosage, 17.28 mg Fe/kg, 6 days after treatment): 8.70 ± 0.43
- Blood hemochrome content (Blood-loss Anemia Model; high dosage, 17.28 mg Fe/kg, 12 days after treatment): 11.01 ± 0.34
- GPC (blood granulophilocyte) (Blood-loss Anemia Model; [4]): 10.04%
- RBC (Blood-loss Anemia Model; [4]): 5.67e+12 L⁻¹
- Blood hemochrome content (Blood-loss Anemia Model; high dosage, 17.28 mg Fe/kg, 18 days after treatment): 12.40
- GPC (blood granulophilocyte) (Blood-loss Anemia Model; [5]): 7.84%
- RBC (Blood-loss Anemia Model; [5]): 5.84e+12 L⁻¹
- Blood hemochrome content (Blood-loss Anemia Model; high dosage, 17.28 mg Fe/kg, before treatment): 7.88 ± 0.28
- Blood hemochrome content (Blood-loss Anemia Model; low dosage, 4.32 mg Fe/kg, 6 days after treatment): 8.00 ± 0.42
- Blood hemochrome content (Blood-loss Anemia Model; low dosage, 4.32 mg Fe/kg, 12 days after treatment): 10.20 ± 0.49
- GPC (blood granulophilocyte) (Blood-loss Anemia Model; [6]): 13.12%
- RBC (Blood-loss Anemia Model; [6]): 4.242e+12 L⁻¹
- Blood hemochrome content (Blood-loss Anemia Model; low dosage, 4.32 mg Fe/kg, 18 days after treatment): 11.26 ± 0.79
- GPC (blood granulophilocyte) (Blood-loss Anemia Model; [7]): 8.91%
- RBC (Blood-loss Anemia Model; [7]): 4.76e+12 L⁻¹
- Blood hemochrome content (Blood-loss Anemia Model; low dosage, 4.32 mg Fe/kg, before treatment): 7.61 ± 0.53
- effect on treating IDA compared with both ferrous gluconate and ferrous fumarate (Blood-loss Anemia Model; same ferrous dosage): better effects on treating IDA compared with both ferrous gluconate and ferrous fumarate
- improvement and cure of anemia compared with ferrous gluconate and ferrous fumarate (Blood-loss Anemia Model; summary statement covering hemolytic anemia, blood-loss anemia and nutritional IDA): can significantly improve and cure hemolytic anemia, blood-loss anemia and nutritional IDA
- variations of Hb, SF and RBC compared with control group (IDA for Children; 30 days of treatment, P<0.01): significantly better compared with those of control group (P<0.01)
- FEP (IDA for Children; after treatment (30 days)): 445.1 µg/L
- RBC (IDA for Children; [8]): 401.5 ± 12.4 10^4 /mm^3
- SF (IDA for Children; [8]): 17.01 ± 1.99 µg/L
- Hb (IDA for Children; before treatment, twice a day): 104.8 ± 6.1 g/L
- RBC (IDA for Children; before treatment, twice a day): 387 ± 6.67 10^4 /mm^3
- SF (IDA for Children; before treatment, twice a day): 12.45 ± 1.50 µg/L
- number of children with Hb > 120 g/L and ΔHb > 10 g/L (IDA for Children; n=30, tablets, 30 days): 17
- number of children with no effectiveness (IDA for Children; n=30, tablets, 30 days): 6
- number of children with ΔHb > 5 g/L (IDA for Children; n=30, tablets, 30 days): 7
- share of children with Hb > 120 g/L and ΔHb > 10 g/L (IDA for Children; n=30, tablets, 30 days): 56.7%
- share of children with no effectiveness (IDA for Children; n=30, tablets, 30 days): 20.0%
- share of children with ΔHb > 5 g/L (IDA for Children; n=30, tablets, 30 days): 23.3%
- FEP (IDA for Children; printed under after treatment (30 days)): 120.4 ± 11.2 µg/L
- Hb (IDA for Children; printed under before treatment): 669.1 ± 72.0 g/L
- effective rate of improving the case of IDA for children (IDA for Children; tablets, 30 days): 80%
- variations of Hb, SF and RBC before and after treatment (IDA for Children; treatment group, P<0.01): understandingly significant difference (P<0.01)
- Iron content of whole blood (Hemolytic Anemia Model; [9]): 301.89 ± 19.500 µg/mL
- Serum ferritin (SF) (Hemolytic Anemia Model; [9]): 23.54 ± 2.50 ng/mL
- hemoglobin content (Hemolytic Anemia Model; 8.64 mg Fe/kg (middle dosage / positive control), after anemia (before treatment)): 5.87 g %
- hemoglobin content (Hemolytic Anemia Model; 8.64 mg Fe/kg (middle dosage / positive control), before anemia (baseline)): 15.01 g %
- hemoglobin content (Hemolytic Anemia Model; 8.64 mg Fe/kg (middle dosage / positive control), one week after treatment): 11.11 g %
- hemoglobin content (Hemolytic Anemia Model; 8.64 mg Fe/kg (middle dosage / positive control), two weeks after treatment): 14.04 g %
- whole blood iron and serum ferritin compared with ferrous gluconate group (Hemolytic Anemia Model; groups except low dosage group): more considerably better than those of ferrous gluconate group
- Iron content of whole blood (Hemolytic Anemia Model; high dosage, 17.28 mg Fe/kg): 326.95 ± 26.956 µg/mL
- Serum ferritin (SF) (Hemolytic Anemia Model; high dosage, 17.28 mg Fe/kg): 24.05 ± 1.74 ng/mL
- hemoglobin content (Hemolytic Anemia Model; high dosage, 17.28 mg Fe/kg, after anemia (before treatment)): 6.18 g %
- hemoglobin content (Hemolytic Anemia Model; high dosage, 17.28 mg Fe/kg, before anemia (baseline)): 14.9 g %
- hemoglobin content (Hemolytic Anemia Model; high dosage, 17.28 mg Fe/kg, one week after treatment): 11.95 g %
- hemoglobin content (Hemolytic Anemia Model; high dosage, 17.28 mg Fe/kg, two weeks after treatment): 14.34 g %
- Iron content of whole blood (Hemolytic Anemia Model; low dosage, 4.32 mg Fe/kg): 283.53 ± 23.051 µg/mL
- Serum ferritin (SF) (Hemolytic Anemia Model; low dosage, 4.32 mg Fe/kg): 19.38 ± 1.57 ng/mL
- hemoglobin content (Hemolytic Anemia Model; low dosage, 4.32 mg Fe/kg, after anemia (before treatment)): 5.94 g %
- hemoglobin content (Hemolytic Anemia Model; low dosage, 4.32 mg Fe/kg, before anemia (baseline)): 14.89 g %
- hemoglobin content (Hemolytic Anemia Model; low dosage, 4.32 mg Fe/kg, one week after treatment): 9.95 g %
- hemoglobin content (Hemolytic Anemia Model; low dosage, 4.32 mg Fe/kg, two weeks after treatment): 12.57 g %
- action on treating anemia compared with ferrous gluconate (Hemolytic Anemia Model; same dosage of iron, 8.64 mg/kg): considerably better than ferrous gluconate
